Measured values as given in patent US20250170141A1, “MRGPRX2 MODULATORS AND RELATED METHODS OF TREATMENT” (Escient Pharmaceuticals, Inc., priority 2023, published 2025).

Molecular target: T1, human MRGPRX2 (Homo sapiens, UniProt Q96LB1)
T1 construct: expressed in transfected cells; host or cells: CHO cells, stably transfected (G418 and Hygromycin B selection)
T1 sequence (Q96LB1 1-330): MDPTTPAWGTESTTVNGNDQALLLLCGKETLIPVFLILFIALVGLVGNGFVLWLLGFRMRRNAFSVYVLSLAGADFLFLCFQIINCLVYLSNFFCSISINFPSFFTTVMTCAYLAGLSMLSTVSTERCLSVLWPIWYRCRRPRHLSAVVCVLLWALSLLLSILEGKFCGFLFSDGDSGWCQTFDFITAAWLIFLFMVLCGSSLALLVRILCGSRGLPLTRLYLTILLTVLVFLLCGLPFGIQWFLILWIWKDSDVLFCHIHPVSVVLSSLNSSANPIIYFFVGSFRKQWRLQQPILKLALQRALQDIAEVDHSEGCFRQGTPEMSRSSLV
Assay: MRGPRX2 activity: IP-One Gq HTRF assay in CHO cells, antagonism versus 0.3 uM Cortistatin-14
Type: cell-based
Settings: versus 0.3 uM Cortistatin-14 agonist, CHO cells expressing human MRGPRX2, read-out: MRGPRX2 Antagonist Activity
Experimental: CHO cells stably transfected to express human MRGPRX2 were maintained in an incubator at 37° C. with 5% CO2 and grown in F12 (HAM) media with 10% fetal bovine serum (FBS), 1% Glutamax, 1% penicillin/streptomycin, 800 μg/mL Geneticin (G418), and 300 μg/mL Hygromycin B.
Cells were plated in a 384-well assay plate at 20,000 cells per well in 12 μL of Opti-MEM and kept in an incubator overnight. On the day of the assay, compounds solubilized at 10 mM in DMSO were added as a 10-point curve (30 uM final top concentration with 1:3 serial dilutions) using a Tecan D300E digital dispenser. Agonists were diluted in assay buffer (final concentrations of 5.7 mM Tris-HCl, 43 mM NaCl, 50 mM LiCl, pH=8) and 2 μL of the agonist Cortistatin-14 (CPC Scientific, catalog CORT-002) are added to each well. Final concentrations of agonists were 0.3 μM Cortistatin. Final concentrations of DMSO were kept consistent across the plate. Plates were incubated in the dark for 1 h at 37° C. and then for 1 h at room temperature. IP-1 standards and HTRF detection reagents were added according to the IP-One—Gq Kit purchased from Cisbio (part number 62IPAPEJ) and incubated in the dark for 1 h at room temperature. The plate was read on a Molecular Devices SpectraMax iD5 plate reader. The HTRF ratio was calculated from the raw data and graphed using GraphPad Prism to calculate an IC50 value for each compound.
The activity ranges are denoted as follows: “+++++” denotes antagonist activity <100 nM; “++++” denotes antagonist activity between 100 and 500 nM; “+++” denotes activity between 501 and 1000 nM; “++” denotes activity between 1001 and 2500 nM; and “+” denotes activity >2500 nM.

`O=S1(=O)N=C(NCc2ccccc2C(F)(F)F)Nc2c(Cc3ccccc3Cl)cccc21` [Compound 12-27, 5-(2-chlorobenzyl)-3-((2-(trifluoromethyl)benzyl)amino)-4H-benzo[e][1,2,4]thiadiazine 1,1-dioxide] and `O=S1(=O)N=C(NCc2cnccc2C(F)(F)F)Nc2c(Cc3ccccc3Cl)cccc21` [Compound 12-30, 5-(2-chlorobenzyl)-3-(((4-(trifluoromethyl)pyridin-3-yl)methyl)amino)-4H-benzo[e][1,2,4]thiadiazine 1,1-dioxide] cannot be ordered by IC50: less than 100 nM for the first, less than 100 nM for the second.

`CC(c1ccc2ccccc2c1)c1c(F)ccc2c1NC(NCc1cccc(F)c1)=NS2(=O)=O` (centres unmarked) [Compound 22-8, 6-fluoro-3-((3-fluorobenzyl)amino)-5-(1-(naphthalen-2-yl)ethyl)-4H-benzo[e][1,2,4]thiadiazine 1,1-dioxide] and `CC(c1cccc(N(C)C)c1)c1c(F)ccc2c1NC(NCc1cccc(F)c1)=NS2(=O)=O` (centres unmarked) [Compound 22-23, 5-(1-(3-(dimethylamino)phenyl)ethyl)-6-fluoro-3-((3-fluorobenzyl)amino)-4H-benzo[e][1,2,4]thiadiazine 1,1-dioxide] fall in the same range of IC50: 100 to 500 nM for the first, 100 to 500 nM for the second.

`CC(c1nccs1)c1c(F)ccc2c1NC(NCc1cccc(F)c1)=NS2(=O)=O` (centres unmarked) [Compound 22-11, 6-fluoro-3-((3-fluorobenzyl)amino)-5-(1-(thiazol-2-yl)ethyl)-4H-benzo[e][1,2,4]thiadiazine 1,1-dioxide] and `CC(C)CC(C)c1c(F)ccc2c1NC(NCc1cccc(F)c1)=NS2(=O)=O` (centres unmarked) [Compound 22-4, 6-fluoro-3-((3-fluorobenzyl)amino)-5-(4-methylpentan-2-yl)-4H-benzo[e][1,2,4]thiadiazine 1,1-dioxide] cannot be ordered by IC50: less than 100 nM for the first, less than 100 nM for the second.

Compared with `O=S1(=O)N=C(NCc2cnccc2C(F)(F)F)Nc2c1ccc(F)c2Oc1ccccc1Cl` [Compound 1-28, 5-(2-chlorophenoxy)-6-fluoro-3-(((4-(trifluoromethyl)pyridin-3-yl)methyl)amino)-4H-benzo[e][1,2,4]thiadiazine 1,1-dioxide], `O=S1(=O)N=C(NCc2ccc(F)cc2F)Nc2c1ccc(F)c2Oc1ccccc1Cl` [Compound 1-29, 5-(2-chlorophenoxy)-3-((2,4-difluorobenzyl)amino)-6-fluoro-4H-benzo[e][1,2,4]thiadiazine 1,1-dioxide] is lower in IC50: 501 to 1000 nM for the first, less than 100 nM for the second. The second is the more potent here.

`Cc1cccnc1CNC1=NS(=O)(=O)c2cccc(Cc3ccccc3Cl)c2N1` [Compound 12-21, 5-(2-chlorobenzyl)-3-(((3-methylpyridin-2-yl)methyl)amino)-4H-benzo[e][1,2,4]thiadiazine 1,1-dioxide] and `COc1cccnc1CNC1=NS(=O)(=O)c2cccc(Cc3ccccc3Cl)c2N1` [Compound 12-25, 5-(2-chlorobenzyl)-3-(((3-methoxypyridin-2-yl)methyl)amino)-4H-benzo[e][1,2,4]thiadiazine 1,1-dioxide] cannot be ordered by IC50: less than 100 nM for the first, less than 100 nM for the second.

Going from `C[C@@H](NC1=NS(=O)(=O)c2ccc(F)c(Oc3ccccc3Cl)c2N1)c1ccccc1F` [Compound 2-3, (R)-5-(2-chlorophenoxy)-6-fluoro-3-((1-(2-fluorophenyl)ethyl)amino)-4H-benzo[e][1,2,4]thiadiazine 1,1-dioxide] to `Cc1c(F)cccc1CNC1=NS(=O)(=O)c2ccc(F)c(Oc3ccccc3Cl)c2N1` [Compound 1-24, 5-(2-chlorophenoxy)-6-fluoro-3-((3-fluoro-2-methylbenzyl)amino)-4H-benzo[e][1,2,4]thiadiazine 1,1-dioxide], the IC50 falls from greater than 2500 nM to less than 100 nM. The second is the more potent here.

`O=S1(=O)N=C(NCc2ccccc2F)Nc2c(Cc3cccc(Cl)c3)cccc21` [Compound 6-11, 5-(3-chlorobenzyl)-3-((2-fluorobenzyl)amino)-4H-benzo[e][1,2,4]thiadiazine 1,1-dioxide] and `O=S1(=O)N=C(NCc2ccccc2F)Nc2c(Cc3cccc(F)c3)cccc21` [Compound 6-8, 5-(3-fluorobenzyl)-3-((2-fluorobenzyl)amino)-4H-benzo[e][1,2,4]thiadiazine 1,1-dioxide] cannot be ordered by IC50: less than 100 nM for the first, less than 100 nM for the second.

`O=S1(=O)N=C(NCc2ncccc2F)Nc2c1ccc(F)c2CCc1ccccc1Cl` [Compound 11-1, 5-(2-chlorophenethyl)-6-fluoro-3-(((3-fluoropyridin-2-yl)methyl)amino)-4H-benzo[e][1,2,4]thiadiazine 1,1-dioxide] and `Cc1cccnc1CNC1=NS(=O)(=O)c2ccc(F)c(Oc3ccccc3Cl)c2N1` [Compound 1-32, 5-(2-chlorophenoxy)-6-fluoro-3-(((3-methylpyridin-2-yl)methyl)amino)-4H-benzo[e][1,2,4]thiadiazine 1,1-dioxide] fall in the same range of IC50: 100 to 500 nM for the first, 100 to 500 nM for the second.

First: O=S1(=O)N=C(NCc2ncccc2F)Nc2c1ccc(F)c2Oc1c(F)cccc1F [Compound 1-33, 5-(2,6-difluorophenoxy)-6-fluoro-3-(((3-fluoropyridin-2-yl)methyl)amino)-4H-benzo[e][1,2,4]thiadiazine 1,1-dioxide]
Second: CC(C)(C)c1cccc(Cl)c1Oc1c(F)ccc2c1NC(NCc1ncccc1F)=NS2(=O)=O [Compound 1-36, 5-(2-(tert-butyl)-6-chlorophenoxy)-6-fluoro-3-(((3-fluoropyridin-2-yl)methyl)amino)-4H-benzo[e][1,2,4]thiadiazine 1,1-dioxide]
The IC50 of the first is higher: 501 to 1000 nM for the first, less than 100 nM for the second.

`N#Cc1cccc(Cc2cccc3c2NC(NCc2ccccc2F)=NS3(=O)=O)c1` [Compound 6-12, 3-((3-((2-fluorobenzyl)amino)-1,1-dioxido-4H-benzo[e][1,2,4]thiadiazin-5-yl)methyl)benzonitrile] and `O=S1(=O)N=C(NCc2ccccc2F)Nc2c(CCc3ccccc3)cccc21` [Compound 6-18, 3-((2-fluorobenzyl)amino)-5-phenethyl-4H-benzo[e][1,2,4]thiadiazine 1,1-dioxide] cannot be ordered by IC50: less than 100 nM for the first, less than 100 nM for the second.

`[2H]C([2H])(NC1=NS(=O)(=O)c2ccc(F)c(Oc3ccccc3Cl)c2N1)c1ccccc1` [Compound 1-44, 5-(2-chlorophenoxy)-6-fluoro-3-((phenylmethyl-d2)amino)-4H-benzo[e][1,2,4]thiadiazine 1,1-dioxide] and `COc1ccccc1CNC1=NS(=O)(=O)c2ccc(F)c(Oc3ccccc3Cl)c2N1` [Compound 1-31, 5-(2-chlorophenoxy)-6-fluoro-3-((2-methoxybenzyl)amino)-4H-benzo[e][1,2,4]thiadiazine 1,1-dioxide] fall in the same range of IC50: 100 to 500 nM for the first, 100 to 500 nM for the second.

`O=S1(=O)N=C(NCc2ccccc2C(F)(F)F)Nc2c1cc(F)c(F)c2Cc1ccccc1Cl` [Compound 4-16, 5-(2-chlorobenzyl)-6,7-difluoro-3-((2-(trifluoromethyl)benzyl)amino)-4H-benzo[e][1,2,4]thiadiazine 1,1-dioxide] and `O=S1(=O)N=C(NCc2cc(F)ccc2F)Nc2c1cc(F)c(F)c2Cc1ccccc1Cl` [Compound 4-10, 5-(2-chlorobenzyl)-3-((2,5-difluorobenzyl)amino)-6,7-difluoro-4H-benzo[e][1,2,4]thiadiazine 1,1-dioxide] fall in the same range of IC50: 100 to 500 nM for the first, 100 to 500 nM for the second.

`CC(c1ccccc1F)c1c(F)ccc2c1NC(NCc1ccccc1F)=NS2(=O)=O` (centres unmarked) [Compound 7-5, 6-fluoro-3-((2-fluorobenzyl)amino)-5-(1-(2-fluorophenyl)ethyl)-4H-benzo[e][1,2,4]thiadiazine 1,1-dioxide] and `C[C@H](c1ccccc1F)c1c(F)ccc2c1NC(NCc1ccc3c(cnn3C)c1)=NS2(=O)=O` [Compound 24-3, (R)-6-fluoro-5-(1-(2-fluorophenyl)ethyl)-3-(((1-methyl-1H-indazol-5-yl)methyl)amino)-4H-benzo[e][1,2,4]thiadiazine 1,1-dioxide] cannot be ordered by IC50: less than 100 nM for the first, less than 100 nM for the second.

First: COc1cccnc1CNC1=NS(=O)(=O)c2cc(F)c(F)c(Oc3ccccc3Cl)c2N1 [Compound 1-7, 5-(2-chlorophenoxy)-6,7-difluoro-3-(((3-methoxypyridin-2-yl)methyl)amino)-4H-benzo[e][1,2,4]thiadiazine 1,1-dioxide]
Second: O=S1(=O)N=C(NCc2cccnc2C(F)(F)F)Nc2c(Cc3ccccc3Cl)cccc21 [Compound 12-31, 5-(2-chlorobenzyl)-3-(((2-(trifluoromethyl)pyridin-3-yl)methyl)amino)-4H-benzo[e][1,2,4]thiadiazine 1,1-dioxide]
The IC50 of the first is higher: 100 to 500 nM for the first, less than 100 nM for the second. The second is the more potent here.

`Cc1cc(F)ccc1CNC1=NS(=O)(=O)c2cccc(Cc3ccccc3Cl)c2N1` [Compound 12-7, 5-(2-chlorobenzyl)-3-((4-fluoro-2-methylbenzyl)amino)-4H-benzo[e][1,2,4]thiadiazine 1,1-dioxide] was tested, and the IC50 was less than 100 nM.
